In US12571052B2, “Immunomodulatory RNA” (THE TRUSTEES OF THE UNIVERSITY OF PENNSYLVANIA, priority 2017, dated 2026):
Entries after “also recorded” stand apart in the source; their conditions may differ.

Assays:
recombinant RIG-I = biological target: T1, recombinant RIG-I (Homo sapiens, UniProt O95786); test: RIG-I ATPase assay (ATP hydrolysis); format: biochemical; conditions: RNA added to recombinant RIG-I, equimolar amounts
T1 sequence (O95786 1-925): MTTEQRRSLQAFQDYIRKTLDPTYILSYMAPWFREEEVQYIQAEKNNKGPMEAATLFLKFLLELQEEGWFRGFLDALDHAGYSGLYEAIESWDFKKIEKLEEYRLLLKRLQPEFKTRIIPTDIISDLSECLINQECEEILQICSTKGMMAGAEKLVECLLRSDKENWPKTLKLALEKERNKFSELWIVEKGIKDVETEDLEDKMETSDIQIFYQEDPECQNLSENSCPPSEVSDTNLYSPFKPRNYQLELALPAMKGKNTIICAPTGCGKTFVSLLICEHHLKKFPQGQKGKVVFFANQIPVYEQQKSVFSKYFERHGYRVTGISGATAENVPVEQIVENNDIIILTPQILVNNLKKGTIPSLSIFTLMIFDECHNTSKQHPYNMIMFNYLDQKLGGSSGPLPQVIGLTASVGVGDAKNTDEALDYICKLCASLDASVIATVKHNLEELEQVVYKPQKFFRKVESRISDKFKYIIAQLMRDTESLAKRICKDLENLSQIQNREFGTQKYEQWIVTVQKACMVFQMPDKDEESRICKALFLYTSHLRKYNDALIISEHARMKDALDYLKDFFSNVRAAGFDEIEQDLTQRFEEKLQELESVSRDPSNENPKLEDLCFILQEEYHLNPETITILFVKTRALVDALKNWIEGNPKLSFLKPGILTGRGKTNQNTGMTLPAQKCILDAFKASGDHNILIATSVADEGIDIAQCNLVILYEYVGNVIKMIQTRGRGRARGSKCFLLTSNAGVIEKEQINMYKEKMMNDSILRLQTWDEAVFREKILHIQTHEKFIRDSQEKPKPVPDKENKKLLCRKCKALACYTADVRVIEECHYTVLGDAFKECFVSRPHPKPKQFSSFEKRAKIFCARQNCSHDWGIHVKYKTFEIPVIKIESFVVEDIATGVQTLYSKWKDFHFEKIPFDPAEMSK
Method: RIG-I ATPase Assays. RIG-I ATPase assays were performed as previously described (Devarkar et al. (2016) Proc. Natl. Acad. Sci. 113, 596-601). In brief, increasing amounts of RNA (10-60 nM) were added to a constant quantity of RIG-I (5 nM) in the presence of 1 mM ATP. ATP hydrolysis was measured with the EnzChek Phosphate Assay Kit (ThermoFisher) after 60-90 minutes at 37° C. ATP hydrolysis was then measured by absorbance of 360 nm compared to background. A 19-mer 5′triphosphate dsRNA (Invivogen) and DVG396 were used as positive controls and a 19-mer 5′OH dsRNA (Invivogen) and an in vitro transcribed 300 bp ssRNA stretch of GAPDH (GAPDH300) were used as negative controls.

[1] = test system: myeloid/dendritic cells in the spleen; test: Spleen myeloid/dendritic cell activation after intravenous injection; format: in vivo, mice
[2] = test system: 1833 ISG-R breast cancer xenografts; test: Intratumoral injection into subcutaneous 1833 xenografts; format: in vivo, athymic nude mice
Method: In Vivo Mouse Studies. For exosome injection studies, 1×10^6 1833 breast cancer cells were injected with Matrigel (Corning) into the flanks of 6-8 week old athymic nude mice and 10 μg of mono- or co-culture exosomes were directly injected into the tumors 3 times a week. For RNA injection studies, 50 ng of 7SL or GAPDH300 RNA encapsulated into RNAiMax liposomes were directly injected into the tumors 3 times a week. Subcutaneous tumor growth was measured by caliper. For lung colonization studies, 2×10^5 luciferase-labeled 4175 breast cancer cells were injected in the tail vein. Injections were confirmed by immediate imaging using a Xenogen IVIS 100 system. Serum was isolated from mice by cardiac puncture.

B16-F10 tumor cells = test: B16-F10/MEF co-implantation, tumor growth and survival under checkpoint blockade; format: in vivo, C57BL/6 mice; conditions: MYC activated MEFs vs MEFs co-expressing SRP9/14; anti-CTLA-4 or anti-PD-1
Method: Wild type (WT) C57BL/6 mice were injected with 5×10^4 B16-F10 tumor cells subcutaneously in the flank with 5×10^4 MYC activated mouse embryonic fibroblasts (MEFs) or MYC activated MEFs co-expressing SRP9/14. MYC activation is inducible with 4-OHT and results in the secretion of exosomes containing unshielded 7SL1 RNA, while co-expression of SRP9/14 ensures the 7SL1 RNA remains relatively shielded, allowing measurement of the stimulatory capacity specifically of the unshielded form (Nabet B Y, et al. Cell. 2017; 170 (2): 352-366.e13). Mice were subsequently treated with the anti-CTLA-4 or anti-PD-1 antibody (or not), and then tumor growth was monitored by caliper. Endpoint criterion was considered a tumor measurement of 1.5 cm in any direction.
Tumors were implanted as described in FIGS. 25A-25B and treated with CSF1R inhibitor BLZ945 (Novartis) every 2 days for 2 weeks starting at day 0 to prevent M2 polarization of infiltrating myeloid cells. Mice were additionally treated with anti-CTLA4 (FIG. 27A) or anti-CTLA4 and anti-PD1 (FIGS. 27B and 27C) on days 5, 8, and 11. Tumor growth was monitored by caliper.

**Q.** What does the source list for “RN7SL1: Human RN7SL1 (7SL, srpRNA) RNA, 5'ppp, in vitro transcribed or secreted unshielded in exosomes; SEQ ID NO: 2”?
**A.** RIG-I ATP helicase activity as measured by ATP hydrolysis (recombinant RIG-I): directly binds recombinant RIG-I; also recorded: comparable to an equimolar amount of Sendai virus-derived RNA (DVG396); myeloid/dendritic cell maturation and activation (MHCII+ and CD86+) [1]: promote immune cell activation in the neutral immune environment of mouse spleens; tumor growth ([2]; 50 ng liposome-encapsulated RNA intratumorally 3 times a week, RIG-I WT tumors): enhance tumor growth in a RIG-I-dependent manner; tumor growth ([2]; 50 ng liposome-encapsulated RNA intratumorally, RIG-I KO tumors): no effect was observed; ISG expression in tumors ([2]; tumors expressing WT RIG-I, human specific primers): an increase in ISG expression; response to checkpoint blockade therapy (B16-F10 tumor cells): does not significantly impact response to anti-CTLA-4 or anti-PD-1 therapy
